Values quoted from earlier work as cited in patent publication US7951359B2, “Compositions and methods for therapy or prevention of chemotherapy-induced neuropathy” (Merck Serono SA, priority 2004, dated 2011).

System: CIPN caused by carboplatin/paclitaxel
Conditions: 2 or 4 μg/kg sub coetaneous daily for 7 days; cited from earlier work

LIF: Recombinant leukemia inhibitor factor (LIF), another gp130 activator
prevention of CIPN: ineffective at preventing CIPN
